# Experimental data reported in patent US20260216135A1, “ANTIVIRAL PHARMACEUTICAL COMPOSITION AND PREPARATION METHOD THEREFOR” (priority 2023, published 2026).
# Read-outs that look alike come from different tables or passages of the source.
# Columns and labels:
# [1] = tested on: 47 safety-related targets; details: read-out: EC50 for 47 safety-related targets (inhibition or activation)
# From the text: For 78 tests related to 47 safe targets, the experimental methods used included: CAMP assay, calcium flux assay, hormone nuclear receptor assay, kinase binding assay, enzyme activity assay, neurotransmitter transporter assay, ion channel assay, and transporter assay.
# [2] = tested on: SARS-CoV-2 Delta strain; details: for Viral load, brain tissue, Day 4 / Viral load, lung tissue, Day 2: intragastric BID, mean ± SD
# [3] = tested on: SARS-CoV-2 Omicron strain (B.1.1.529); assay: microbe, parasite or virus in culture; details: Severe acute respiratory syndrome coronavirus 2, Vero C1008, read-out: IC50 (μM), Vero E6 Omicron strain (B.1.1.529)
# [4] = 200 mg/kg + ritonavir 50 mg/kg, listed as compound of formula (I)
smiles,measurement,setting,value
CC(C)(C)[C@H](NC(=O)C(F)(F)F)C(=O)N1CC2(C[C@H]1C(=O)N[C@H](C#N)C[C@@H]1CCNC1=O)SCCS2 [Compound of formula (I)],EC50,[1],> 100000 nM
same,"Viral load, brain tissue, Day 4",[2]; 50 mg/kg + ritonavir 50 mg/kg,2.88 ± 1.26 log10 copies/mg
same,"Viral load, lung tissue, Day 2",[2]; 50 mg/kg + ritonavir 50 mg/kg,7.66 ± 0.27 log10 copies/g
same,"Viral load, lung tissue, Day 2","[2]; 50 mg/kg + ritonavir 50 mg/kg, listed as compound of formula (I)",7.66 log10 copies/g
same,"Viral load, brain tissue, Day 4",[2]; 200 mg/kg + ritonavir 50 mg/kg,0.99 ± 0.42 log10 copies/mg
same,"Viral load, lung tissue, Day 2",[2]; 200 mg/kg + ritonavir 50 mg/kg,6.79 ± 0.30 log10 copies/g
same,"Viral load, brain tissue, Day 4",[2]; [4],comparable to that of the uninfected normal group
same,"Viral load, lung tissue, Day 2",[2]; [4],6.79±0.30 log10 copies/g
same,Histopathological analysis of the lungs,"[2]; 200 mg/kg, compared with model group",significantly ameliorated lung damage
same,Body weight of mice,"[2]; mouse, in vivo",not significantly reduced
same,Reduction of viral copy number in the lungs compared with the model group,"[2]; mouse, in vivo",2.4 log 10 copies/g
same,Reduction of viral titer in the lungs compared to the model group,"[2]; mouse, in vivo",more than 3 log 10 PFU/g
same,Virus titer in the brains (plaque assay),"[2]; mouse, in vivo",no virus titer was detected
same,IC50,[3],0.12 µM
